Measurements reported in ChEMBL document CHEMBL1201862, “PubChem BioAssay data set” (2004).
Activity calls are given as the source filed them.

Assays:
[1] = Cytotoxicity Dose Response with AM2.2-beta2AR cells for PowderSet01.; assay type: functional, cell-based; details: read-out: EC50_MICROM
[2] = biological target: T1, Beta-2 adrenergic receptor (Homo sapiens, UniProt P07550); assay: beta2AR agonists driving receptor internalization, dose response, cell-based, FAP fluorogen, flow cytometry, cherry pick 1 (AID 588763); assay type: functional
T1 sequence (P07550 whole entry): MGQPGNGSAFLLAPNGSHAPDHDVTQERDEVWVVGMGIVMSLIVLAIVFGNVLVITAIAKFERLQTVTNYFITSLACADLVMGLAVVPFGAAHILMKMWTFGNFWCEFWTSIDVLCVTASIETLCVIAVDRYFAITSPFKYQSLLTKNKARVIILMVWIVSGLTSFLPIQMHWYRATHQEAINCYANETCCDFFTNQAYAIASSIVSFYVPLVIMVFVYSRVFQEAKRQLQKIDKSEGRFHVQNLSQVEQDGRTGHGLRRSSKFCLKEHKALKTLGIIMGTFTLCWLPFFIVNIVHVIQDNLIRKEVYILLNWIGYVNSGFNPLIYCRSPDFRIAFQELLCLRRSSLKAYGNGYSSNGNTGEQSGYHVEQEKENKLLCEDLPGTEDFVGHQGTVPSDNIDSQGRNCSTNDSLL

[3] = biological target: T1, Beta-2 adrenergic receptor; assay: Dose response for HTS for Beta-2AR agonists via FAP method from Powderset1.; assay type: functional
[4] = biological target: T2, Estrogen receptor beta (Homo sapiens, UniProt Q92731); assay: ERβ–SRC-3 coactivator interaction inhibitors, confirmation, orthogonal assay, biochemical, ELISA, streptavidin-HRP readout (AID 1060)
T2 sequence (Q92731 whole entry): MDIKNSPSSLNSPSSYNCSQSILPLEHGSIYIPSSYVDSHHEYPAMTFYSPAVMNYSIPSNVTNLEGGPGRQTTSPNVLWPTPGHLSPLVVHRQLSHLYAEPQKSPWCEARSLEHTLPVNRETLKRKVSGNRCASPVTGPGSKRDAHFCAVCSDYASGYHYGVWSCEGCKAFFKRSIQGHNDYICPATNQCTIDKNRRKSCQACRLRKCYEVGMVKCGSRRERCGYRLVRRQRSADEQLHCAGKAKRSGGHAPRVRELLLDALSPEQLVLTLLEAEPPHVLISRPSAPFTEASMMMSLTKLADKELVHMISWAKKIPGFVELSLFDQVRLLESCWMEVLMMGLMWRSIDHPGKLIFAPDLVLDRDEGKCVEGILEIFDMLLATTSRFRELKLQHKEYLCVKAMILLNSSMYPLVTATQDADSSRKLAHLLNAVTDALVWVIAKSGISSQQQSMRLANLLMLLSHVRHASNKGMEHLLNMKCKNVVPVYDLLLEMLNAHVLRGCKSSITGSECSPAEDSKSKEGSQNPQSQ

[5] = biological target: T2, Estrogen receptor beta
[6] = biological target: T3, Estrogen receptor (Homo sapiens, UniProt P03372);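 note: potency for inhibiting coactivator peptide recruitment to the receptor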
T3 sequence (P03372 whole entry): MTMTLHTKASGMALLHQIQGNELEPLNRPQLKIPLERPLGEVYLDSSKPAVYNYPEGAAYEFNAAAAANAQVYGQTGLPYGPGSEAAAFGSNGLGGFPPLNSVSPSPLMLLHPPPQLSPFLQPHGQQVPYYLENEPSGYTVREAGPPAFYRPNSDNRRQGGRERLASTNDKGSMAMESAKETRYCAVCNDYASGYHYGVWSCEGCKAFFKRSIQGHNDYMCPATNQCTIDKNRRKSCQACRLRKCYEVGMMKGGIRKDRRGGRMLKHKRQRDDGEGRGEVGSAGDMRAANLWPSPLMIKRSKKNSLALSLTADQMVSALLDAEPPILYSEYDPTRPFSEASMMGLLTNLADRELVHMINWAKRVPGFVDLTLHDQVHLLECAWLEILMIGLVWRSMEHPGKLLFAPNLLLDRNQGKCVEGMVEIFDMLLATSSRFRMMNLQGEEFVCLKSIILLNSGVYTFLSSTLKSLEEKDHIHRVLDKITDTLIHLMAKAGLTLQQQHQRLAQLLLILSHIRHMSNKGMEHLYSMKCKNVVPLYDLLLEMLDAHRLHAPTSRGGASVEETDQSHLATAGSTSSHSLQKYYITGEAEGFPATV

[7] = biological target: T4, Sentrin-specific protease 8 (Homo sapiens, UniProt Q96LD8); assay type: functional;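 note: kinetic enzyme assay of SENP8 cleaving a Nedd8 protein substrate, dose-response confirmation of screening hits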
T4 sequence (Q96LD8 whole entry): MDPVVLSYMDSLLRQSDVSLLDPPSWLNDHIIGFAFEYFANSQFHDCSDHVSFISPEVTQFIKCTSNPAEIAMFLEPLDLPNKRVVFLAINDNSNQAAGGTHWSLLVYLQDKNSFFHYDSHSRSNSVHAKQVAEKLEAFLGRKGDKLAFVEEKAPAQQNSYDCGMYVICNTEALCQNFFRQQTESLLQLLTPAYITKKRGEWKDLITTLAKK

[8] = biological target: Induced myeloid leukemia cell differentiation protein Mcl-1 (Homo sapiens, UniProt Q07820); assay type: functional
[9] = biological target: T5, Sentrin-specific protease 1 (Homo sapiens, UniProt Q9P0U3); assay: potency of human SENP1 inhibitors, dose response, biochemical, kinetic FRET (AID 651697); assay type: functional; details: read-out: IC50_Mean
T5 sequence (Q9P0U3 whole entry): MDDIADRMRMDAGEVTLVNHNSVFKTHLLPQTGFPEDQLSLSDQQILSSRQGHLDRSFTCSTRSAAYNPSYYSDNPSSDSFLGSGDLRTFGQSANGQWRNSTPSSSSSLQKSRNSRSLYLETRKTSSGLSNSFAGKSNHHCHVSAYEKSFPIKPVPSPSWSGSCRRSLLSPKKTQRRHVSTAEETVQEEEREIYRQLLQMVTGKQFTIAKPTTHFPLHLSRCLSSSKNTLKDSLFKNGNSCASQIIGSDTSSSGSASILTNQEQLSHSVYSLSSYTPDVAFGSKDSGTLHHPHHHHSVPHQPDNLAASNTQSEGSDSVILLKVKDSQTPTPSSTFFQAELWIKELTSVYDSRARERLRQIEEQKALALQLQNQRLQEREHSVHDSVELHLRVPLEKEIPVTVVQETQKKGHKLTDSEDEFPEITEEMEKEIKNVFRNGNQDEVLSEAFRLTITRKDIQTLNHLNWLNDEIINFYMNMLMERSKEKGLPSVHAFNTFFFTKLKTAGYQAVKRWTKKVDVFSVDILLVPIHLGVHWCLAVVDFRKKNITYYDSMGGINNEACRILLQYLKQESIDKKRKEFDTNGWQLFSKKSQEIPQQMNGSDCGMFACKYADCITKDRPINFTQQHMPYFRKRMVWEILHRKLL

[10] = biological target: Transitional endoplasmic reticulum ATPase (Homo sapiens, UniProt P55072, C522A); assay: C522A mutant p97 ATPase inhibitors, dose response, counter-screen for p97 inhibitor project, biochemical, luminescence (AID 1544)
Chain of Transitional endoplasmic reticulum ATPase (Homo sapiens, UniProt P55072, C522A) (P55072 2-806 C522A limits assumed): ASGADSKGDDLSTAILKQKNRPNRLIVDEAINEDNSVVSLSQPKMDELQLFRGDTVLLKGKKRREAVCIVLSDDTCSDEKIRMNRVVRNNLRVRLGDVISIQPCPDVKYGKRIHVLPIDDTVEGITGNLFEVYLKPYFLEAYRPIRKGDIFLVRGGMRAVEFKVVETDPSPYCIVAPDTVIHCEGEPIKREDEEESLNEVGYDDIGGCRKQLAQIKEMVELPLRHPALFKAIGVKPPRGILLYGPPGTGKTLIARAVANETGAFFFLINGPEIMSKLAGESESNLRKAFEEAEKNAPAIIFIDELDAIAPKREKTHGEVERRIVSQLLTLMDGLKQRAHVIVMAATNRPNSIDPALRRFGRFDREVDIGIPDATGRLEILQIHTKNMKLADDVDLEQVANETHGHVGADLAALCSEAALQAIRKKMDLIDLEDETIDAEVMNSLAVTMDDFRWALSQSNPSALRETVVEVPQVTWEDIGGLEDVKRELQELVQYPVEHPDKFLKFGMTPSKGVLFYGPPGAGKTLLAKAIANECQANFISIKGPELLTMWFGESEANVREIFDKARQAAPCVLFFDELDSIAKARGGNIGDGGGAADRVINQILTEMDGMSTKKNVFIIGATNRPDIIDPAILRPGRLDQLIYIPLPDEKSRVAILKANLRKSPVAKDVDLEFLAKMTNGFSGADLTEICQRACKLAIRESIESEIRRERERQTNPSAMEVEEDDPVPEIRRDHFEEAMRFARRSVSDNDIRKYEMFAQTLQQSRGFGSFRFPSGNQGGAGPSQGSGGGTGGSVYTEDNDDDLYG

[11] = Luminescence Cell-Based Dose Retest to Confirm Inhibitors of Cancer Stem Cells. [Related pubchem assays (depositor defined):AID2717, AID2721]; assay type: functional; details: Homo sapiens
[12] = biological target: T5, Sentrin-specific protease 1; assay: Dose response confirmation of small molecule inhibitors of the catalytic domain of the SUMO protease, SENP1 in a FRET assay.; assay type: functional; details: read-out: IC50_Mean
[13] = biological target: Transitional endoplasmic reticulum ATPase (Homo sapiens, UniProt P55072); assay: p97 ATPase inhibitors, dose response, biochemical (AID 1534)
[14] = biological target: T6, Corticotropin-releasing factor receptor 2/Corticotropin-releasing factor-binding protein (Homo sapiens, UniProt P24387+Q13324); assay: activators of CRF receptor 2 with binding protein – uHTS hits, confirmation (AID 602473); assay type: functional; details: read-out: EC50_Mean
T6 sequence (Q13324 whole entry): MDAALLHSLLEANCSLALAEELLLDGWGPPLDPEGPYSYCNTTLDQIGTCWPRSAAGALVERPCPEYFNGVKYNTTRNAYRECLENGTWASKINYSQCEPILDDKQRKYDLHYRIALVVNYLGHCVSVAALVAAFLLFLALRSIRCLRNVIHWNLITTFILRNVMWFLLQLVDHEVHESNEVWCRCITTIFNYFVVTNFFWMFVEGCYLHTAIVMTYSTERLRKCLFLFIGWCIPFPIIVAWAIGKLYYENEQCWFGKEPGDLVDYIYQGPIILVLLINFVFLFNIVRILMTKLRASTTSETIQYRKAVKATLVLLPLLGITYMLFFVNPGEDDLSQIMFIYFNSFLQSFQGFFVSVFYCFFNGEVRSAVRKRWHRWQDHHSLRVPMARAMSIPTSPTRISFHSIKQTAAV
T6 sequence (P24387 whole entry): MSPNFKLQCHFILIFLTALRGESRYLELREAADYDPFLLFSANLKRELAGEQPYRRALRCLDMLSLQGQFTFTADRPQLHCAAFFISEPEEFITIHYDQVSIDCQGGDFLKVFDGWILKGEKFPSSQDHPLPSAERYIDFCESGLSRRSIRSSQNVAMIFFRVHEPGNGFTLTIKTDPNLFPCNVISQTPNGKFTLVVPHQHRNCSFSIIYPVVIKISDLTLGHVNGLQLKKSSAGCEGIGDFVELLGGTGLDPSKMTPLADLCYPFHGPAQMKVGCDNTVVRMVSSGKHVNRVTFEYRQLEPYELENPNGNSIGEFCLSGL

[15] = CRF-BP/CRF-R2 complex antagonists, dose response, cell-based, uHTS hits, 384-well (AID 651639); assay type: functional, Homo sapiens; details: read-out: IC50_Mean
[16] = biological target: T6, Corticotropin-releasing factor receptor 2/Corticotropin-releasing factor-binding protein; assay: Dose Response confirmation of uHTS hits for small molecule antagonists of the CRF-binding protein and CRF-R2 receptor complex.; assay type: functional; details: read-out: IC50_Mean
[17] = biological target: Cytochrome P450 2C9 (Homo sapiens, UniProt P11712)
[18] = biological target: T7, Cytochrome P450 1A2 (Homo sapiens, UniProt P05177);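 note: PubChem cytochrome P450 panel assay, CYP1A2 panel member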
T7 sequence (P05177 whole entry): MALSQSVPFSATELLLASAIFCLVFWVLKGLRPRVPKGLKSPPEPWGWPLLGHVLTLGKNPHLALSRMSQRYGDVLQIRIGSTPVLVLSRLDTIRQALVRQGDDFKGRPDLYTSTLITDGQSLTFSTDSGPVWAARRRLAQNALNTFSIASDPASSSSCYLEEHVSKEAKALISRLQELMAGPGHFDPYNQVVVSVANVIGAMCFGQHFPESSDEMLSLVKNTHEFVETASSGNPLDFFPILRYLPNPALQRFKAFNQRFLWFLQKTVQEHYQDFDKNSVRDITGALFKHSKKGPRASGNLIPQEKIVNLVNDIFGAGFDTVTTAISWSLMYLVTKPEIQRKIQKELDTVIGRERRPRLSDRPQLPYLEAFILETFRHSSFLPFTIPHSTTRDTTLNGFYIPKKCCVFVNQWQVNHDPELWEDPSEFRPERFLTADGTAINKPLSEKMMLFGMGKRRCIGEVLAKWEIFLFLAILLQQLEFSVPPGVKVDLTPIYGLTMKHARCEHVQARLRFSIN

[19] = biological target: T8, Streptokinase A (Streptococcus pyogenes serotype M1, UniProt P10520); assay: S. pyogenes streptokinase expression inhibitors, potency, dose response, plasminogen activation absorbance, OD405 (AID 1914); assay type: functional, Streptococcus pyogenes M1 GAS;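 note: secreted streptokinase activity via plasminogen activation per viability signal from cell pellet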
T8 sequence (P10520 whole entry): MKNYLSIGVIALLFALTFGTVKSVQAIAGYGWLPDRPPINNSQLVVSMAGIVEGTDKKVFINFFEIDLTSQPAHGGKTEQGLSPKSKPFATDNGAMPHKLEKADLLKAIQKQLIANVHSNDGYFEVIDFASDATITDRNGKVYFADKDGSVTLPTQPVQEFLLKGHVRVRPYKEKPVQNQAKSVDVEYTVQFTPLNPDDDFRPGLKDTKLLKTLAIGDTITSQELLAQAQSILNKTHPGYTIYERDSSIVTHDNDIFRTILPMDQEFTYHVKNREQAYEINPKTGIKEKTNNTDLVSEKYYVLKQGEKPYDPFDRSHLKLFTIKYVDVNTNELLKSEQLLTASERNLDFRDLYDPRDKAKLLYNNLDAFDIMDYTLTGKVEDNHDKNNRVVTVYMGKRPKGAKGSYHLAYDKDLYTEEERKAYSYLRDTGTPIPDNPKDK

[20] = test system: Streptococcus sp. 'group A'; assay: growth inhibition of control SK(-) GAS strain, dose response, counter-screen for streptokinase expression inhibitor project, luminescence, kanamycin, BacTiterGlo, confirmation (AID 1900); assay type: functional, organism-based
[21] = test system: Streptococcus; assay: Group A Streptococcus viability loss, dose response, counter-screen for streptokinase expression inhibitor project, luminescence, BacTiterGlo (AID 1915); assay type: functional, organism-based;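 note: potency for reduction of bacterial viability or growth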
[22] = biological target: Cytochrome P450 2C19 (Homo sapiens, UniProt P33261); assay: Cytochrome panel assay with activity outcomes. Panel member name: p450-cyp2c19 Compounds with AC50 equal or less than 10 uM are considered active; assay type: functional; details: read-out: AC50
[23] = biological target: Potassium voltage-gated channel subfamily KQT member 2 (Rattus norvegicus, UniProt O88943); assay: KCNQ2 potassium channel inhibitors, dose response, cell-based, automated electrophysiology, set II, rat KCNQ2 (AID 588637); assay type: functional
[24] = biological target: T9, Methionyl-tRNA synthetase, putative (Trypanosoma brucei brucei, UniProt Q38C91); assay type: functional, Trypanosoma brucei brucei strain 927/4 GUTat10.1
T9 sequence (Q38C91 whole entry): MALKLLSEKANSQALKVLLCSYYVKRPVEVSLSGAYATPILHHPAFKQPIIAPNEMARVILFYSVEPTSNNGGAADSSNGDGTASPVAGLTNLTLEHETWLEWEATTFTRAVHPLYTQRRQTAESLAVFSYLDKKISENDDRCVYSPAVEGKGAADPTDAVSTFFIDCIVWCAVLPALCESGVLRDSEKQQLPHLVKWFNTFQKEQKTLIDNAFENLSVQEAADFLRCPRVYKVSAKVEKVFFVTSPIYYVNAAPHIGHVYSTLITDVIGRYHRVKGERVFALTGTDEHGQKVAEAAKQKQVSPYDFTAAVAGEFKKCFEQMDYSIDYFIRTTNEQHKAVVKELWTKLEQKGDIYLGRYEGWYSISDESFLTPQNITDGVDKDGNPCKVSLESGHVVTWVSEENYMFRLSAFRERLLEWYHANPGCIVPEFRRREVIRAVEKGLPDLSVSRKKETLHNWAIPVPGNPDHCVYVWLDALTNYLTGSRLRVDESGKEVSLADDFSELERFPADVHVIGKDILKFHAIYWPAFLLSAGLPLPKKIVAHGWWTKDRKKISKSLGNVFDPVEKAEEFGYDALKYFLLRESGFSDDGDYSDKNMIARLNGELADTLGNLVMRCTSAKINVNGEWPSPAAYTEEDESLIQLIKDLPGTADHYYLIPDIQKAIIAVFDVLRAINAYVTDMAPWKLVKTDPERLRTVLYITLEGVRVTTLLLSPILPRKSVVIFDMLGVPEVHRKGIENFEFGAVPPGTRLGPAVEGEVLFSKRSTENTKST

[25] = Counterscreen for inhibitors of Trypanosoma brucei methionyl tRNA synthetase (MetRS): Luminescence-based cell-based high throughput dose response assay to identify compounds that are cytotoxic to Jurkat human T lymphocyte cells.; assay type: functional
[26] = biological target: Long-chain-fatty-acid--AMP ligase FadD28 (Mycobacterium tuberculosis, UniProt P9WQ59); assay: Fluorescence polarization aasay to screen for inhibitors that compete for the binding of FadD28 to a bisubstrate Measured in Biochemical System Using Plate Reader - 2147-01_Inhibitor_Dose_CherryPick_Activity.; assay type: functional, Mycobacterium tuberculosis H37Rv
Chain of Long-chain-fatty-acid--AMP ligase FadD28 (P9WQ59 whole entry): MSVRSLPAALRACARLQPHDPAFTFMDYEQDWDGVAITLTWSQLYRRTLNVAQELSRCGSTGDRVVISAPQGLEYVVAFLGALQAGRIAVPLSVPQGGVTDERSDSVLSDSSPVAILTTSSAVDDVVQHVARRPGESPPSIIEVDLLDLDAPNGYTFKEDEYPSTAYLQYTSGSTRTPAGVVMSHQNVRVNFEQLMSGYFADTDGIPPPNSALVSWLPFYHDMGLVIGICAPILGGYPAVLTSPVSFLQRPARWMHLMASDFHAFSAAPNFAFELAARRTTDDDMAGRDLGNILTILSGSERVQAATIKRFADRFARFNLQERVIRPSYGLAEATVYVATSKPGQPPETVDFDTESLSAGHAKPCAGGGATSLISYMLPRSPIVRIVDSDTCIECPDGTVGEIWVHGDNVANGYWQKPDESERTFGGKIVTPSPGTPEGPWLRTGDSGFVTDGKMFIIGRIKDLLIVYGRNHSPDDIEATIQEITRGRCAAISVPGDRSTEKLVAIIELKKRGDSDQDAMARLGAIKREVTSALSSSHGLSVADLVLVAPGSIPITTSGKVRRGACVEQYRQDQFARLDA

[27] = biological target: T9, Methionyl-tRNA synthetase, putative; assay type: functional, Trypanosoma brucei brucei strain 927/4 GUTat10.1; remark: listed apart in the source
[28] = biological target: Beta-lactamase (Salmonella choleraesuis (strain SC-B67), UniProt Q5J463); assay: Epi-absorbance-based counterscreen for selective VIM-2 inhibitors: dose response biochemical high throughput screening assay to identify inhibitors of TEM-1 serine-beta-lactamase.
[29] = biological target: T10, Beta-lactamase (Pseudomonas aeruginosa, UniProt Q79MP6); assay: IMP-1 metallo-beta-lactamase inhibitors, dose response, selectivity assay for VIM-2 inhibitor project, biochemical, epi-absorbance (AID 1920)
T10 sequence (Q79MP6 whole entry): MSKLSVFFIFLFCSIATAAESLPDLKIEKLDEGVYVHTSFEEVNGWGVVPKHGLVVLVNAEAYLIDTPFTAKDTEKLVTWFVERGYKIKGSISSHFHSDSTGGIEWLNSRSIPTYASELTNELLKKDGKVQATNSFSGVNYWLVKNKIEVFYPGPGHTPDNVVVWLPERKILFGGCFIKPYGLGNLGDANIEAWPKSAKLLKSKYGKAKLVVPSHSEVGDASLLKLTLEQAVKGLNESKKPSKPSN

[30] = biological target: T10, Beta-lactamase; assay: […] counterscreen for selective VIM-2 inhibitors: dose response biochemical high throughput screening assay to identify inhibitors of IMP-1 metallo-beta-lactamase.
[31] = biological target: ADP-ribosylation factor GTPase-activating protein 1 (Rattus norvegicus, UniProt Q62848); assay: Fluorescence polarization-based biochemical high throughput dose response screening assay to identify inhibitors of ADP-ribosylation factor GTPase activating protein 1 (ARFGAP1).; assay type: functional
Chain of ADP-ribosylation factor GTPase-activating protein 1 (Q62848 whole entry): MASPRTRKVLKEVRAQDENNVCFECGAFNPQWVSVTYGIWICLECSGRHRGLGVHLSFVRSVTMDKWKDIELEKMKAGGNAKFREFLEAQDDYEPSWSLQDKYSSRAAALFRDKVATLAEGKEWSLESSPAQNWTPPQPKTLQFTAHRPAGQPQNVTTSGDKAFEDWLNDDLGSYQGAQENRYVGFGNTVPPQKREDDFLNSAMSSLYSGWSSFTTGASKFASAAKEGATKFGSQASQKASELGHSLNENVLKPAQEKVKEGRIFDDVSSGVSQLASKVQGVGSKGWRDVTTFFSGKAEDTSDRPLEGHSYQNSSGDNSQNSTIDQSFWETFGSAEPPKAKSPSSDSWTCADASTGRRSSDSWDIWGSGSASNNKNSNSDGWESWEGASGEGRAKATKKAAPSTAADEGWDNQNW

[32] = test system: Vero; assay: Vero cell toxicity, dose response, cytotoxicity control, plate reader, cherry-pick samples (AID 687020); assay type: functional, cell-based; details: Chlorocebus sabaeus
[33] = biological target: Protein Wnt-3a (Mus musculus, UniProt P27467); assay: Wnt3a-driven reporter signaling inhibition, dose response, selectivity assay for Gli-SUFU antagonist project, Wnt-LIGHT cells, luminescence (AID 651570); assay type: functional; details: read-out: IC50_Mean;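 note: Wnt-LIGHT reporter cells stimulated with conditioned medium from Wnt3a-producing cells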
Chain of Protein Wnt-3a (P27467 whole entry): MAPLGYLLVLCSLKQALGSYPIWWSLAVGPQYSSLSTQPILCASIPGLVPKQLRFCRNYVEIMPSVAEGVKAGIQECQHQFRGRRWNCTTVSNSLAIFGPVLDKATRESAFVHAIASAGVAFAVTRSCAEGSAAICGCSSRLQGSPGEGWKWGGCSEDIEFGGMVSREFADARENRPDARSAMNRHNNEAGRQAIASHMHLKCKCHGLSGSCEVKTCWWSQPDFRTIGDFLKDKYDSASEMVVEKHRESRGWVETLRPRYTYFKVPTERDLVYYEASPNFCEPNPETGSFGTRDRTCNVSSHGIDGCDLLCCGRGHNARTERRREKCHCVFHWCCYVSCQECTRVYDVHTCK

[34] = biological target: Cytochrome P450 2D6 (Homo sapiens, UniProt P10635);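 note: CYP2D6 member of a cytochrome P450 panel assay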
[35] = test system: INS1; assay: beta cell apoptosis inhibitors, cytokine rescue, dose response, luminescence, retest (AID 449756); assay type: functional, cell-based; details: Rattus norvegicus;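 note: cell death triggered by IL-1 beta plus TNF-alpha plus IFN-gamma mixture; protective hits raise ATP signal compared with cytokine alone wells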

## CCCCC(=O)Nc1ccc(S(=O)(=O)N2CCCCC2c2cccnc2)cc1 (stereo not given)
[1]
  EC50: 23.3 µM (active)
[2]
  EC50: 79.8 nM (active)
[3]
  EC50: 32.2 nM (active)

## CC1=C(SCCC#N)S/C(=C2\SC(C)=C(SCCC#N)S2)S1
[4]
  IC50: 129 nM (not active)
[5]
  IC50: > 50 µM (not active)
[6]
  IC50: 5.1 µM (active)
[7]
  IC50: 299 nM (active)
[8]
  IC50: 2.89 µM (active)

## Oc1ccc(Cl)cc1/C=C(\Cl)c1nc(O)c2ccc(Cl)cc2n1
[9]
  IC50: 654 nM (active)
[10]
  IC50: > 50 µM (not active)
[11]
  AC50: 1.32 µM (active)
[12]
  IC50: 428 nM (active)
[13]
  IC50: > 50 µM (not active)

## CCOC(=O)CSC1=C(C#N)C(c2ccc(Cl)cc2)C(C(=O)OC)C(=O)N1 (stereo not given)
[14]
  EC50: > 53 µM (inactive)
[15]
  IC50: 9.62 µM (active)
[16]
  IC50: 26.5 µM (active)

## O=C(CSc1nc2ccccc2c(=O)n1NC(=O)c1ccccc1)c1ccc(Cl)cc1
[17]
  AC50: 1 µM (inconclusive)
[18]
  AC50: 6.31 µM (inconclusive)
[19]
  EC50: 106 µM (active)
[20]
  EC50: 7.26 µM (active)
[21]
  EC50: > 150 µM (not active)
[22]
  AC50: 2.24 µM (inconclusive)
[23]
  IC50: 1.53 µM (active)

## O=C(NN1C(=O)/C(=C/c2nc3ccccc3[nH]2)SC1=S)c1ccc(Cl)cc1
[24]
  IC50: 119 µM (inactive)
[25]
  IC50: 83.3 µM (inactive)
[26]
  AC50: 1.13 µM (active)
[27]
  IC50: 82.6 µM (inactive)

## Sc1nnc(-c2ccco2)n1-c1cccc2ccccc12
[28]
  IC50: > 59.6 µM (inactive)
[29]
  IC50: > 59.6 µM (inactive)
[30]
  IC50: > 59.6 µM (inactive)

## CCOC(=O)N1CCN(C(=O)CSc2nc(=O)n3cc(C)ccc3n2)CC1
[31]
  IC50: 53.2 µM (inactive)

## CN1C[C@@H]2[C@@H]3C(=O)N(Cc4ccccc4)C(=O)[C@@H]3[C@](C)(C1=O)N2C(=O)c1ccc(C(C)(C)C)cc1
[32]
  AC50: 24.6 µM (active)

## Cc1cc(/C=N/n2cnnc2)c(C)n1-c1ccc(OCc2ccccc2F)cc1
[33]
  IC50: 6.57 µM (active)
[34]
  AC50: 17.8 µM (inconclusive)
[35]
  AC50: 3.41 µM (active)
